Results reported in ChEMBL document CHEMBL1137178, “Design, synthesis and antimalarial activity of a glyoxylylhydrazone library” (Bioorg Med Chem Lett, 2004).

Key:
[1] = target: T1, Histidine-rich protein PFHRP-II (Plasmodium falciparum) (UniProt P05227); test: In vitro inhibition of beta-hematin formation in Plasmodium falciparum at 100 uM; assay type: functional
T1 sequence (whole entry): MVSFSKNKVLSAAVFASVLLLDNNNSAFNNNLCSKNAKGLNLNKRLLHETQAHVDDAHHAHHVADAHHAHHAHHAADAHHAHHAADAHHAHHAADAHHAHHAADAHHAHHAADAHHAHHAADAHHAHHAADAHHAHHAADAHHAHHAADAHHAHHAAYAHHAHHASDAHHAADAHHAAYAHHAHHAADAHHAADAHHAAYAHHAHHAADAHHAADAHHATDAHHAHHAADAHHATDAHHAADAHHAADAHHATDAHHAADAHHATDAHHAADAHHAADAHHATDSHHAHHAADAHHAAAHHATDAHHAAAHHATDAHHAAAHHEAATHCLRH

Plasmodium falciparum [2] = test: Growth inhibition against Plasmodium falciparum FcB1 at 200 nM; assay type: functional
Plasmodium falciparum [3] = test: Inhibitory concentration against chloroquine-resistant Plasmodium falciparum FcB1; assay type: functional, organism-based
Plasmodium falciparum [4] = test: Growth inhibitory concentration against chloroquine-resistant Plasmodium falciparum; assay type: functional, organism-based
MRC5 [5] = test: Cytotoxic effect on human diploid embryonic lung cell line (MRC-5) using the colorimetric MTT assay; assay type: functional
MRC5 [6] = test: Selectivity index measured as CC50/IC50; assay type: functional, Homo sapiens

Compound	inhibition [1] [%]	inhibition at 0.2 µM (Plasmodium falciparum [2]) [%]	IC50 (Plasmodium falciparum [3]) [nM]	IC50 (Plasmodium falciparum [4]) [nM]	CC50 (MRC5 [5]) [nM]	SI (MRC5 [6])
O=C(/C=N/Nc1ccccc1)NCCCCCCCNc1ccnc2cc(Cl)ccc12	0	0				
O=C(/C=N/OCc1ccccc1)NCCCCCCCNc1ccnc2cc(Cl)ccc12	0	29				
CCOCC(=O)N/N=C/C(=O)NCCCCCCCNc1ccnc2cc(Cl)ccc12	12	59				
Cc1ccc(N/N=C/C(=O)NCCCCCCCNc2ccnc3cc(Cl)ccc23)c(C)c1	8		86			
O=C(/C=N/OCc1ccc([N+](=O)[O-])cc1)NCCCCCCCNc1ccnc2cc(Cl)ccc12	0		5	62.3	1700	27
CC(C)(C)c1ccc(N/N=C/C(=O)NCCCCCCCNc2ccnc3cc(Cl)ccc23)cc1	1	32				
CC(C)(C)O/N=C/C(=O)NCCCCCCCNc1ccnc2cc(Cl)ccc12	0	14				
O=C(/C=N/Nc1ccnc2cc(Cl)ccc12)NCCCCCCCNc1ccnc2cc(Cl)ccc12	0		7	19.3	1400	73
COC(=O)c1sccc1N/N=C/C(=O)NCCCCCCCNc1ccnc2cc(Cl)ccc12	11	13				
O=C(/C=N/Nc1c(Cl)cc(C(F)(F)F)cc1Cl)NCCCCCCCNc1ccnc2cc(Cl)ccc12	7		16	88.7	9200	104
O=C(/C=N/Nc1cnc2ccccc2n1)NCCCCCCCNc1ccnc2cc(Cl)ccc12	0		90			
CCO/N=C/C(=O)NCCCCCCCNc1ccnc2cc(Cl)ccc12	0	11				
Cc1cc(N/N=C/C(=O)NCCCCCCCNc2ccnc3cc(Cl)ccc23)nc2c1c(C)nn2C	0		30	63.9	1800	28
O=C(/C=N/Nc1ccc(Cl)cc1Cl)NCCCCCCCNc1ccnc2cc(Cl)ccc12	12	0				
O=C(/C=N/OCc1c(F)c(F)c(F)c(F)c1F)NCCCCCCCNc1ccnc2cc(Cl)ccc12	0	33				
O=C(/C=N/O)NCCCCCCCNc1ccnc2cc(Cl)ccc12	6	10				
O=C(/C=N/Nc1ccc(F)c(Cl)c1)NCCCCCCCNc1ccnc2cc(Cl)ccc12	0		200			
CO/N=C/C(=O)NCCCCCCCNc1ccnc2cc(Cl)ccc12	4	11				
C=CCO/N=C/C(=O)NCCCCCCCNc1ccnc2cc(Cl)ccc12	3		> 500			
Cc1cc(N/N=C/C(=O)NCCCCCCCNc2ccnc3cc(Cl)ccc23)nc(C)n1	19	0				
O=C(/C=N/Nc1nc(-c2cccs2)ns1)NCCCCCCCNc1ccnc2cc(Cl)ccc12	19	8				
COc1ccc2nc(N/N=C/C(=O)NCCCCCCCNc3ccnc4cc(Cl)ccc34)nnc2c1	28		45	73.7	2500	34
O=C(/C=N/Nc1ccc(F)cc1F)NCCCCCCCNc1ccnc2cc(Cl)ccc12	0		105			
O=C(/C=N/Nc1ccc([N+](=O)[O-])cc1[N+](=O)[O-])NCCCCCCCNc1ccnc2cc(Cl)ccc12	25		13	47.3	11100	235
CCN(CC)CCCC(C)Nc1ccnc2cc(Cl)ccc12 (centres undefined) [CHLOROQUINE]	55				50000	
O=C(/C=N/Nc1ccc(Cl)nn1)NCCCCCCCNc1ccnc2cc(Cl)ccc12	0		180			
CC(C)(C)N/N=C/C(=O)NCCCCCCCNc1ccnc2cc(Cl)ccc12	0		60			
O=C(/C=N/NCc1ccccc1)NCCCCCCCNc1ccnc2cc(Cl)ccc12	0		35	161	14600	91
CN(/N=C/C(=O)NCCCCCCCNc1ccnc2cc(Cl)ccc12)c1ncccc1[N+](=O)[O-]	18	3				
